{"source": "paper PMC10323144", "about": "“Garbage in, garbage out: how reliable training data improved a virtual screening approach against SARS-CoV-2 MPro” (Frontiers in Pharmacology, 2023)", "origin": "cited, not measured here"}
{"test_system": "MPro", "details": "compiled from peer-reviewed sources (287 compounds) ref the 18 original articles; cited from earlier work"}
{"smiles": "CC(C)CC(NC(=O)OCc1ccccc1)C(=O)NC(CC1CCNC1=O)C(O)S(=O)(=O)O", "note": "(stereo not drawn) [GC-376]", "Class (MPro activity class)": "1 (Compounds with IC50 < 10 µM or with a percentage of enzyme inhibition >50% at 10 µM were labelled as ACTIVE)"}
{"smiles": "O=C(CCl)N1CCN(C(c2ccccc2)C2CCCCC2)CC1", "note": "(stereo not drawn) [GIA-UNK-20b63697-6]", "Class (MPro activity class)": "1 (Compounds with IC50 < 10 µM or with a percentage of enzyme inhibition >50% at 10 µM were labelled as ACTIVE)"}
{"smiles": "O=C(OCC(O)CO)c1ccccc1Nc1ccnc2cc(Cl)ccc12", "note": "(stereo not drawn) [GLAFENINE]", "Class (MPro activity class)": "0 (compounds with IC50 > 20 μM, percentage inhibition <80% at 20 µM or 50 μM, or percentage enzyme inhibition <50% at 10 µM were labelled as INACTIVE)"}
{"smiles": "O=C(Oc1cncc(Cl)c1)c1cccc2c1CCN2", "note": "[GRL-172]", "Class (MPro activity class)": "1 (Compounds with IC50 < 10 µM or with a percentage of enzyme inhibition >50% at 10 µM were labelled as ACTIVE)"}
{"smiles": "COc1cccc(Nc2c(C(N)=O)cnc3c(C)cc(S(=O)(=O)c4cccc(C(=O)N(C)C)c4)cc23)c1", "note": "[GSK-256066]", "Class (MPro activity class)": "0 (compounds with IC50 > 20 μM, percentage inhibition <80% at 20 µM or 50 μM, or percentage enzyme inhibition <50% at 10 µM were labelled as INACTIVE)"}
{"smiles": "CCOC(=O)c1ccc(OC(=O)CCCCCNC(=N)N)cc1", "note": "[Gabexate]", "Class (MPro activity class)": "0 (compounds with IC50 > 20 μM, percentage inhibition <80% at 20 µM or 50 μM, or percentage enzyme inhibition <50% at 10 µM were labelled as INACTIVE)"}
{"smiles": "CC(C)(C)[C@@H]1NC(=O)O[C@@H]2CCC[C@H]2OC/C=C/C(F)(F)c2nc3ccccc3nc2O[C@@H]2C[C@@H](C(=O)N[C@]3(C(=O)NS(=O)(=O)C4(C)CC4)C[C@H]3C(F)F)N(C2)C1=O", "note": "[Glecaprevir]", "Class (MPro activity class)": "0 (compounds with IC50 > 20 μM, percentage inhibition <80% at 20 µM or 50 μM, or percentage enzyme inhibition <50% at 10 µM were labelled as INACTIVE)"}
{"smiles": "O=c1c(O)c(-c2ccc(O)cc2)oc2c(O)c(O)cc(O)c12", "note": "[Herbacetin]", "Class (MPro activity class)": "0 (compounds with IC50 > 20 μM, percentage inhibition <80% at 20 µM or 50 μM, or percentage enzyme inhibition <50% at 10 µM were labelled as INACTIVE)"}
{"smiles": "CCN(CCO)CCCC(C)Nc1ccnc2cc(Cl)ccc12", "note": "(stereo not drawn) [Hydroxychloroquine]", "Class (MPro activity class)": "0 (compounds with IC50 > 20 μM, percentage inhibition <80% at 20 µM or 50 μM, or percentage enzyme inhibition <50% at 10 µM were labelled as INACTIVE)"}
{"smiles": "Cc1cc(C(=O)CN2CCCC2)c(C)n1-c1ccc(F)cc1", "note": "[IU1 S7134]", "Class (MPro activity class)": "0 (compounds with IC50 > 20 μM, percentage inhibition <80% at 20 µM or 50 μM, or percentage enzyme inhibition <50% at 10 µM were labelled as INACTIVE)"}
{"smiles": "CNC(=O)[C@H](Cc1c[nH]c2ccccc12)NC(=O)[C@@H](CC(=O)NO)CC(C)C", "note": "[Ilomastat]", "Class (MPro activity class)": "0 (compounds with IC50 > 20 μM, percentage inhibition <80% at 20 µM or 50 μM, or percentage enzyme inhibition <50% at 10 µM were labelled as INACTIVE)"}
{"smiles": "O=C(C=Cc1ccc(O)c(O)c1)OC1CC(O)(C(=O)O)CC(OC(=O)C=Cc2ccc(O)c(O)c2)C1O", "note": "(stereo not drawn) [Isochlorogenic acid A]", "Class (MPro activity class)": "0 (compounds with IC50 > 20 μM, percentage inhibition <80% at 20 µM or 50 μM, or percentage enzyme inhibition <50% at 10 µM were labelled as INACTIVE)"}
{"smiles": "O=C(C=Cc1ccc(O)c(O)c1)OC1CC(O)(C(=O)O)CC(O)C1OC(=O)C=Cc1ccc(O)c(O)c1", "note": "(stereo not drawn) [Isochlorogenic acid B]", "Class (MPro activity class)": "0 (compounds with IC50 > 20 μM, percentage inhibition <80% at 20 µM or 50 μM, or percentage enzyme inhibition <50% at 10 µM were labelled as INACTIVE)"}
{"smiles": "CCC(C)n1ncn(-c2ccc(N3CCN(c4ccc(OCC5COC(Cn6cncn6)(c6ccc(Cl)cc6Cl)O5)cc4)CC3)cc2)c1=O", "note": "(stereo not drawn) [Itraconazole]", "Class (MPro activity class)": "0 (compounds with IC50 > 20 μM, percentage inhibition <80% at 20 µM or 50 μM, or percentage enzyme inhibition <50% at 10 µM were labelled as INACTIVE)"}
{"smiles": "CCC(C)C1OC2(CCC1C)CC1CC(CC=C(C)C(OC3CC(OC)C(OC4CC(OC)C(O)C(C)O4)C(C)O3)C(C)C=CC=C3COC4C(O)C(C)=CC(C(=O)O1)C34O)O2", "note": "(stereo not drawn) [Ivermectin]", "Class (MPro activity class)": "0 (compounds with IC50 > 20 μM, percentage inhibition <80% at 20 µM or 50 μM, or percentage enzyme inhibition <50% at 10 µM were labelled as INACTIVE)"}
